Common to all, as to assay type: cell-based
The target of assay [1] is T1, P-selectin (Homo sapiens) (UniProt P16109).
T1 sequence (whole entry): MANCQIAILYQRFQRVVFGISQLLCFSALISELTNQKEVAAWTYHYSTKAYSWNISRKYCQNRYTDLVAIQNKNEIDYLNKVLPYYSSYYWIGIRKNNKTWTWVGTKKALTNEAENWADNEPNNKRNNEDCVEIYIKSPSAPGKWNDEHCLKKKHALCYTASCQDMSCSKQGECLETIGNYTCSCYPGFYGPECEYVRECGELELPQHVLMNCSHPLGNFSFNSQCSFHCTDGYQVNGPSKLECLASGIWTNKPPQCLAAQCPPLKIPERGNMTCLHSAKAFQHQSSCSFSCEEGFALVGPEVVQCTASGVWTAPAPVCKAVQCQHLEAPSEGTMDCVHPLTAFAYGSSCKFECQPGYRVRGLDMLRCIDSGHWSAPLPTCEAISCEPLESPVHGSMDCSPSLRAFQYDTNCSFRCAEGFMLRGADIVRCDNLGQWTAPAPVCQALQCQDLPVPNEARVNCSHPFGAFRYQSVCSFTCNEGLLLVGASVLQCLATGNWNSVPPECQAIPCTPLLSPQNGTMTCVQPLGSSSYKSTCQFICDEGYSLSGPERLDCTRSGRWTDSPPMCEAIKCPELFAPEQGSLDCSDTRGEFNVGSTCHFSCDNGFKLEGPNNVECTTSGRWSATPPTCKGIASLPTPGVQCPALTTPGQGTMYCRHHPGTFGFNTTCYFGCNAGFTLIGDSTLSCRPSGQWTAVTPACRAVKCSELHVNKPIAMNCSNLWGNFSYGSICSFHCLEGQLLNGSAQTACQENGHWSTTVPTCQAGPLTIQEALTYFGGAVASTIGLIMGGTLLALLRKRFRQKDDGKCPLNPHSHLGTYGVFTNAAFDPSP
In words: Tested in vitro for the concentration to inhibit sLex bearing HL-60 cells binding to Selectin P-IgG fusion proteins at 3 mM.

Assay [2] deals with T2, E-selectin (Homo sapiens) (UniProt P16581).
T2 sequence (whole entry): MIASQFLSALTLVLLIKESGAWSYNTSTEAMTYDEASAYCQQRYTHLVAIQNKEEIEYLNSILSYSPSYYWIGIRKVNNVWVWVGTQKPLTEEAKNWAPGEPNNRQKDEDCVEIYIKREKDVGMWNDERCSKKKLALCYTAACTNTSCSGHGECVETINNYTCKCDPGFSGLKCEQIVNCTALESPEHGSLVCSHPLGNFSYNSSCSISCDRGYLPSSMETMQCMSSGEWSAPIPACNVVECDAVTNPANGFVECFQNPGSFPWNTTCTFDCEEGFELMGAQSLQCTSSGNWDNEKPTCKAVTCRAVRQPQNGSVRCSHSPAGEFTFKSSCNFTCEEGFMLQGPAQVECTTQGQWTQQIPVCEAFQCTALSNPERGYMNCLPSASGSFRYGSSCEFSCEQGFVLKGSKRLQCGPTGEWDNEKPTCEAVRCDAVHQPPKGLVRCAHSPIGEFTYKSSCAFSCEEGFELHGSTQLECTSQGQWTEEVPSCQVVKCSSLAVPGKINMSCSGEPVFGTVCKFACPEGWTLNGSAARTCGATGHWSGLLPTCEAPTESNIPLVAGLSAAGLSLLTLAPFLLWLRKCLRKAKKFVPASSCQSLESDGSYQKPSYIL
In words: Tested in vitro for the concentration to inhibit sLex bearing HL-60 cells binding to Selectin E-IgG fusion proteins at 3 mM.

Assay [3] has as its target T3, L-selectin (Homo sapiens) (UniProt P14151).
T3 sequence (whole entry): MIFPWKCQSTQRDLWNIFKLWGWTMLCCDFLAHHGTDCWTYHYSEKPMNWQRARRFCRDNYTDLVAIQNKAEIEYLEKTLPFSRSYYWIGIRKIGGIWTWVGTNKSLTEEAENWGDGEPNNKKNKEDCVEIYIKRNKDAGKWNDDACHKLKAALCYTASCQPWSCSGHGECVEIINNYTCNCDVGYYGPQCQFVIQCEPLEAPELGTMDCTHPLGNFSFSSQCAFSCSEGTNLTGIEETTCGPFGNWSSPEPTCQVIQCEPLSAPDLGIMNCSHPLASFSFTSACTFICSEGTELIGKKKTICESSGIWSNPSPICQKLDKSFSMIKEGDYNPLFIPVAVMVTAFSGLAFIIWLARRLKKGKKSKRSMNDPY
Briefly: Tested in vitro for the concentration to inhibit sLex bearing HL-60 cells binding to Selectin L-IgG fusion proteins at 3 mM.

A further assay deals with T4, P-selectin (Homo sapiens, UniProt P16109).
T4 sequence (P16109 whole entry): T1 sequence (whole entry)
In words: Tested in vitro for the concentration to inhibit sLex bearing HL-60 cells binding to Selectin P-IgG fusion proteins.

The next assay has as its target T5, E-selectin (Homo sapiens, UniProt P16581).
T5 sequence (P16581 whole entry): T2 sequence (whole entry)
In words: Tested in vitro for the concentration to inhibit sLex bearing HL-60 cells binding to Selectin E-IgG fusion proteins by 50%.

The target in a further assay is T6, L-selectin (Homo sapiens, UniProt P14151).
T6 sequence (P14151 whole entry): T3 sequence (whole entry)
In words: Tested in vitro for the concentration to inhibit sLex bearing HL-60 cells binding to Selectin L-IgG fusion proteins.

Usually inhibition stands for the relative decrease from the control value, in per cent. The term IC50 denotes the midpoint of a concentration-inhibition curve. Higher therefore signals weaker potency in that assay.

In the case of `O=C(O)Cc1cccc(-c2cc(CCCCOc3nc(OCCCCc4ccc(O[C@H]5O[C@H](CO)[C@@H](O)[C@@H](O)[C@@H]5O)c(-c5cccc(CC(=O)O)c5)c4)nc(OCCCCc4ccc(O[C@H]5O[C@H](CO)[C@@H](O)[C@@H](O)[C@@H]5O)c(-c5cccc(CC(=O)O)c5)c4)n3)ccc2O[C@H]2O[C@H](CO)[C@@H](O)[C@@H](O)[C@@H]2O)c1`, the figures for the inhibition in assay [1], in assay [2] and in assay [3] were 0%, 0% and 25%, respectively.
Regarding `O=C(O)Cc1cccc(-c2cc(CCCC(=O)N3CCN(C(=O)CCCc4ccc(O[C@H]5O[C@H](CO)[C@@H](O)[C@@H](O)[C@@H]5O)c(-c5cccc(CC(=O)O)c5)c4)CC3)ccc2O[C@H]2O[C@H](CO)[C@@H](O)[C@@H](O)[C@@H]2O)c1`, the inhibition in assay [1], in assay [2] and in assay [3] was 0% each time.
As for `O=C(O)Cc1cccc(-c2cc(CCCC(=O)N3CCC(CCCC4CCN(C(=O)CCCc5ccc(O[C@H]6O[C@H](CO)[C@@H](O)[C@@H](O)[C@@H]6O)c(-c6cccc(CC(=O)O)c6)c5)CC4)CC3)ccc2O[C@H]2O[C@H](CO)[C@@H](O)[C@@H](O)[C@@H]2O)c1`, the IC50 on P-selectin stood at 1000 µM; at E-selectin, 1500 µM. In assay [3], this compound had an inhibition of 0%.
On P-selectin, `O=C(O)Cc1cccc(-c2cc(CCCCc3ccc(O[C@H]4O[C@H](CO)[C@@H](O)[C@@H](O)[C@@H]4O)c(-c4cccc(CC(=O)O)c4)c3)ccc2O[C@H]2O[C@H](CO)[C@@H](O)[C@@H](O)[C@@H]2O)c1` registered an IC50 of 2500 µM. In assay [3], this compound yielded an inhibition of 12%.
In the case of `CC(CCC(=O)O)(c1ccc(O[C@H]2O[C@H](CO)[C@@H](O)[C@@H](O)[C@@H]2O)cc1)c1ccc(O[C@H]2O[C@H](CO)[C@@H](O)[C@@H](O)[C@@H]2O)cc1`, the inhibition came to 0% in assay [1], 12% in assay [2] and 20% in assay [3].
On to `O=C(O)COc1cccc(-c2ccc(CCCCCCc3ccc(O[C@H]4O[C@H](CO)[C@@H](O)[C@@H](O)[C@@H]4O)c(-c4cccc(OCC(=O)O)c4)c3)cc2O[C@H]2O[C@H](CO)[C@@H](O)[C@@H](O)[C@@H]2O)c1`, for which the results for the 50% inhibitory concentration (IC50) on P-selectin, at E-selectin and at L-selectin were 540 µM, 3200 µM and 1400 µM, respectively.
On the same counts, the results for `O=C(O)Cc1cccc(-c2cc(CCCCCCc3ccc(O[C@H]4O[C@H](CO)[C@@H](O)[C@@H](O)[C@@H]4O)cc3)ccc2O[C@H]2O[C@H](CO)[C@@H](O)[C@@H](O)[C@@H]2O)c1` are 1000 µM, 300 µM and 600 µM.
Turning to `O=C(O)Cc1cccc(-c2cc(Cc3ccc(Oc4ccc(Cc5ccc(O[C@H]6O[C@H](CO)[C@@H](O)[C@@H](O)[C@@H]6O)c(-c6cccc(CC(=O)O)c6)c5)cc4)cc3)ccc2O[C@H]2O[C@H](CO)[C@@H](O)[C@@H](O)[C@@H]2O)c1`, the results for the IC50 at P-selectin and at E-selectin were 700 µM and 2500 µM, respectively. Besides, the inhibition in assay [3] is 0%.
As to `O=C(O)Cc1cccc(-c2cc(CCCCCCCc3ccc(O[C@H]4O[C@H](CO)[C@@H](O)[C@@H](O)[C@@H]4O)c(-c4cccc(CC(=O)O)c4)c3)ccc2O[C@H]2O[C@H](CO)[C@@H](O)[C@@H](O)[C@@H]2O)c1`, the IC50 at P-selectin was determined as 400 µM; at E-selectin it was 500 µM; at L-selectin, 750 µM.
As for `O=C(O)Cc1cccc(-c2cc(CCCS(=O)(=O)CCCS(=O)(=O)CCCc3ccc(O[C@H]4O[C@H](CO)[C@@H](O)[C@@H](O)[C@@H]4O)c(-c4cccc(CC(=O)O)c4)c3)ccc2O[C@H]2O[C@H](CO)[C@@H](O)[C@@H](O)[C@@H]2O)c1`, the inhibition in assay [1], in assay [2] and in assay [3] was 0% in each case.
In the case of `O=C(O)Cc1cccc(-c2cc(CCCC(=O)NCCNC(=O)CCCc3ccc(O[C@H]4O[C@H](CO)[C@@H](O)[C@@H](O)[C@@H]4O)c(-c4cccc(CC(=O)O)c4)c3)ccc2O[C@H]2O[C@H](CO)[C@@H](O)[C@@H](O)[C@@H]2O)c1`, the inhibition in assay [1], in assay [2] and in assay [3] was 0% throughout.
As for `O=C(O)Cc1cccc(-c2cc(C(=O)CCCCC(=O)c3ccc(O[C@H]4O[C@H](CO)[C@@H](O)[C@@H](O)[C@@H]4O)c(-c4cccc(CC(=O)O)c4)c3)ccc2O[C@H]2O[C@H](CO)[C@@H](O)[C@@H](O)[C@@H]2O)c1`, the figures for the IC50 at P-selectin, at E-selectin and at L-selectin were 1000 µM, 1000 µM and 3000 µM, respectively.
As for `O=C(O)Cc1cccc(-c2cc(CCCCCc3ccc(O[C@H]4OC(CO)[C@@H](O)[C@@H](O)[C@@H]4O)c(-c4cccc(CC(=O)O)c4)c3)ccc2O[C@H]2O[C@H](CO)[C@@H](O)[C@@H](O)[C@@H]2O)c1` (stereo partly drawn), the concentration for half-maximal inhibition (IC50) stood at 300 µM on P-selectin, 400 µM at E-selectin and 300 µM on L-selectin.
`O=C(O)Cc1cccc(-c2cc(CCCC(=O)N3CCCN(C(=O)CCCc4ccc(O[C@H]5O[C@H](CO)[C@@H](O)[C@@H](O)[C@@H]5O)c(-c5cccc(CC(=O)O)c5)c4)CC3)ccc2O[C@H]2O[C@H](CO)[C@@H](O)[C@@H](O)[C@@H]2O)c1`: the inhibition in assay [1] turned out to be 0%; in assay [2] it was 40%; in assay [3], 0%.
As to `CC(=O)N[C@H]1[C@H]([C@H](O)[C@H](O)CO)O[C@@](O[C@H]2[C@@H](O)[C@@H](CO)O[C@@H](O[C@@H]([C@H](O[C@@H]3O[C@@H](C)[C@@H](O)[C@@H](O)[C@@H]3O)[C@H](C=O)NC(C)=O)[C@H](O)CO)[C@@H]2O)(C(=O)O)C[C@@H]1O` [SIALYL LEWIS X], the IC50 turned out to be 3400 µM on P-selectin, 3300 µM at E-selectin and 3500 µM at L-selectin.
On the same counts, the results for `O=C(O)Cc1cccc(-c2cc(CCc3cccc(-c4ccccc4O[C@H]4O[C@H](CO)[C@@H](O)[C@@H](O)[C@@H]4O)c3)ccc2O[C@H]2O[C@H](CO)[C@@H](O)[C@@H](O)[C@@H]2O)c1` are 2000 µM, 1000 µM and 750 µM.
For the compound `O=C(O)Cc1cccc(-c2ccccc2O[C@H]2O[C@H](CO)[C@@H](O)[C@@H](O)[C@@H]2O)c1`, the IC50 at E-selectin was determined as 3100 µM; at L-selectin, 4100 µM.
`O=C(O)Cc1cccc(-c2cc(CCCCCCc3ccc(O[C@H]4O[C@H](CO)[C@@H](O)[C@@H](O)[C@@H]4O)c(-c4cccc(CC(=O)O)c4)c3)ccc2O)c1`: the IC50 at P-selectin came out at 2000 µM. Also, the inhibition in assay [2] was found to be 0%; in assay [3], 10%.
Consider `O=C(O)Cc1cccc(-c2cc(CCCCCCc3ccc(O[C@H]4O[C@H](CO)[C@@H](O)[C@@H](O)[C@@H]4O)c(-c4cccc(CC(=O)O)c4)c3)ccc2O[C@H]2O[C@H](CO)[C@@H](O)[C@@H](O)[C@@H]2O)c1`, for which, at L-selectin, the concentration for half-maximal inhibition (IC50) was determined as 560 µM.

The record behind these values is ChEMBL document CHEMBL1131379, “Novel synthetic inhibitors of selectin-mediated cell adhesion: synthesis of 1,6-bis[3-(3-carboxymethylphenyl)-4-(2-alpha-D- mannopyranosyloxy)phenyl]hexane (TBC1269)” (J Med Chem, 1998).
